Experiments:
[1] = LD50, lethal dosage at which 50 percent of the animals expire; details: mouse, in vivo, ip; mice, intraperitoneal injection unless otherwise indicated
Method: (§1) Table VI below details the activity of the various species of this series along with the dosages utilized expressed in mg/kg of body weight and the lethal dosage at which 50 percent of the animals expire (^LD 50) for each of the compounds. Unless otherwise indicated, the dosage and the ^LD 50 were administered by intraperitoneal injection. It is to be understood, of course, that the particular route of administration is not critical to the manifestation of biological effects.

[2] = tested on: central nervous system; test: CNS activity (depressant or stimulant) in test mice; type: in vivo; details: i.p.
Method: as §1

[3] = tested on: rats; test: Learning and retention (escape time, jump out test) after electroconvulsive shock on a modified Cook-Weidley apparatus; type: in vivo; details: for Mean Escape Time, Retention Trial: 1 hour after last acquisition trial
Method: In addition to the foregoing activity, the administration of some of these novel compounds to warm-blooded animals results in an increased rate of learning by the animal coupled with a prolonged period of retention of the learned behavior.
The behavioral effects resulting from the administration of these compounds to rats were evaluated on a modified Cook-Weidley apparatus (L. Cook and E. Weidley, Ann. N.Y. Acad. Sci., 66, 790, 1957). The apparatus consists of a chamber with a grid flooring and an escape platform outside the chamber. The electric shock to the grid floor was controlled by a rheostat mechanism and scrambler. Rats were divided into 2 groups for each test trial. One group was administered saline as the control and the other group the test compound about 1/2 hour prior to electroconvulsive shock. It is known that electroconvulsive shock induces a state of proactive amnesia or an impaired learning rate (Deutsch, J.A., 1962, Ann. Rev. Psychol., 24, 259). Then, 15 minutes after electroconvulsive shock, the rats were given 10 acquisition trials on the jump out test to measure learning rates. Each acquisition trial consisted of 15 seconds in the chamber without any stimulation followed by 10 seconds of buzzer stimulation and culminated by 5 seconds of buzzer-plus-shock stimulation. The time from entrance into the apparatus until the rat jumps out is recorded as the escape time. Retention of the learned behavioral pattern was tested by repeating the test one hour after the last acquisition trial. The test sequence for each trial was terminated upon successful completion of the task, e.g., jumping out of the chamber. EFFECT OF 2-AMINO-8-METHYL-1-OXA-3,8-DIAZASPIRO [4,5]DEC-2-EN-4-ONE INTRAPERITONEAL ADMINISTRATION Mean Escape Time -- Sec. Trial Test Cpd. -- 10 mg/kg Control ______________________________________ 1 29.8 ± 0.3 30.0 ± 0.0 2 29.5 ± 0.5 29.3 ± 0.8 3 13.8 ± 1.7 26.0 ± 2.4 4 12.0 ± 2.1 22.0 ± 3.6 5 7.0 ± 1.6 22.3 ± 3.8 6 7.8 ± 1.5 18.5 ± 1.9 7 6.5 ± 1.6 18.0 ± 2.3 8 7.0 ± 2.2 13.0 ± 2.9 9 10.8 ± 3.0 15.6 ± 2.1 10 9.0 ± 1.2 13.9 ± 1.7 Retention Trial -- 1 hour after last Acquisition Trial: 13.8 ± 1.4 15.8 ± 3.3 EFFECT OF 2-AMINO-7,7,9-TRIMETHYL-1-OXA-3-AZASPIRO [4,5]DEC-2-EN-4-ONE INTRAPERITONEAL ADMINISTRATION Mean Escape Time -- Sec. Trial Test Cpd. 20 mg/kg Control ______________________________________ 1 30.0 ± 0.0 30.0 ± 0.0 2 29.0 ± 0.4 29.5 ± 0.2 3 21.2 ± 3.0 19.7 ± 5.2 4 17.7 ± 5.4 20.2 ± 5.3 5 14.7 ± 1.8 18.0 ± 2.7 6 18.0 ± 3.9 18.5 ± 3.6 7 10.0 ± 2.1 20.2 ± 4.7 8 5.5 ± 1.8 16.5 ± 3.8 9 6.7 ± 2.5 18.7 ± 5.0 10 7.2 ± 2.8 13.7 ± 4.4 Retention Trial -- 1 hour after last Acquisition Trial: 8.0 ± 2.6 20.2 ± 3.3 EFFECT OF 2-AMINO-7,9-DIMETHYL-1-OXA-3-AZASPIRO [4,5]DEC-2-EN-4-ONE ORAL ADMINISTRATION Mean Escape Time -- Sec. Trial Test Cpd. -- 20 mg/kg Control ______________________________________ 1 30.0 ± 0.0 30.0 ± 0.0 2 29.2 ± 0.4 29.7 ± 0.2 3 20.0 ± 4.3 27.2 ± 1.8 4 7.5 ± 2.9 19.7 ± 2.4 5 4.7 ± 0.8 16.0 ± 3.2 6 7.2 ± 2.0 14.7 ± 3.6 7 8.0 ± 1.6 18.7 ± 4.5 8 10.5 ± 3.7 11.0 ± 2.6 9 7.0 ± 1.2 13.0 ± 3.2 10 7.5 ± 2.1 15.5 ± 4.1 Retention Trial -- 1 hour after last Acquisition Trial: 6.7 ± 1.4 15.7 ± 5.0 ______________________________________

## NC1=NC(=O)C2(CCC3CCCCC3C2)O1 (stereo not drawn) [2'-amino-octahydrospiro[naphthalene-2(1H),5'-[2]oxazolin]-4'-one]
[1]
  LD50: > 1000 mg/kg
[2]; dose 500 mg/kg
  Activity: depressant

## NC1=NC(=O)C2(CC3CCC2C3)O1 (stereo not drawn) [2'-aminospiro[norbornane-2,5'-[2]oxazolin]-4'-one]
[1]
  LD50: > 1000 mg/kg
[2]; dose 500 mg/kg
  Activity: depressant

## NC1=NC(=O)C2(CCNCC2)O1 [2-amino-1-oxa-3,8-diazaspiro[4,5]dec-2-en-4-one]
[1]
  LD50: > 1000 mg/kg
[2]; dose 50 mg/kg
  Activity: depressant

## NC1=NC(=O)C2(CCCC2)O1 [2-amino-1-oxa-3-azaspiro[4,4]non-2-en-4-one]
[1]
  LD50: > 1000 mg/kg
[2]; dose 500 mg/kg
  Activity: depressant

## NC1=NC(=O)C2(CCCCC2)O1 [2-amino-1-oxa-3-azaspiro[4,5]dec-2-en-4-one]
[1]
  LD50: > 1000 mg/kg
[2]; dose 200 mg/kg
  Activity: depressant

## NC1=NC(=O)C2(CCCCCC2)O1 [2-amino-1-oxa-3-azaspiro[4,6]undec-2-en-4-one]
[1]
  LD50: > 1000 mg/kg
[2]; dose 500 mg/kg
  Activity: depressant

## NC1=NC(=O)C2(CCCCCCC2)O1 [2-amino-1-oxa-3-azaspiro[4,7]dodec-2-en-4-one]
[1]
  LD50: > 1000 mg/kg
[2]; dose 500 mg/kg
  Activity: depressant

## CC1CC(C)(C)CC2(C1)OC(N)=NC2=O (stereo not drawn) [2-amino-7,7,9-trimethyl-1-oxa-3-azaspiro[4,5]dec-2-en-4-one]
[3]; intraperitoneal, 20 mg/kg
  Mean Escape Time, Retention Trial: 8.0 ± 2.6 s
[3]; intraperitoneal, 20 mg/kg, acquisition trial 1
  Mean Escape Time: 30.0 ± 0.0 s
[3]; intraperitoneal, 20 mg/kg, acquisition trial 2
  Mean Escape Time: 29.0 ± 0.4 s
[3]; intraperitoneal, 20 mg/kg, acquisition trial 3
  Mean Escape Time: 21.2 ± 3.0 s
[3]; intraperitoneal, 20 mg/kg, acquisition trial 4
  Mean Escape Time: 17.7 ± 5.4 s
[3]; intraperitoneal, 20 mg/kg, acquisition trial 5
  Mean Escape Time: 14.7 ± 1.8 s
[3]; intraperitoneal, 20 mg/kg, acquisition trial 6
  Mean Escape Time: 18.0 ± 3.9 s
[3]; intraperitoneal, 20 mg/kg, acquisition trial 7
  Mean Escape Time: 10.0 ± 2.1 s
[3]; intraperitoneal, 20 mg/kg, acquisition trial 8
  Mean Escape Time: 5.5 ± 1.8 s
[3]; intraperitoneal, 20 mg/kg, acquisition trial 9
  Mean Escape Time: 6.7 ± 2.5 s
[3]; intraperitoneal, 20 mg/kg, acquisition trial 10
  Mean Escape Time: 7.2 ± 2.8 s
[1]
  LD50: > 750 mg/kg
[2]; dose 0.1 mg/kg
  Activity: stimulant

## CC1CC2(CC(C)N1C)OC(N)=NC2=O (stereo not drawn) [2-amino-7,8,9-trimethyl-1-oxa-3,8-diazaspiro[4,5]-2-en-4-one]
[1]
  LD50: > 500 mg/kg
[2]; dose 20 mg/kg
  Activity: depressant

## CC1CC2(CC(C)C1C)OC(N)=NC2=O (stereo not drawn) [2-amino-7,8,9-trimethyl-1-oxa-3-azaspiro[4,5]dec-2-en-4-one]
[1]
  LD50: > 1000 mg/kg
[2]; dose 200 mg/kg
  Activity: depressant

## CC1CC(C)CC2(C1)OC(N)=NC2=O (stereo not drawn) [2-amino-7,9-dimethyl-1-oxa-3-aza-spiro[4,5]dec-2-en-4-one]
[3]; oral, 20 mg/kg
  Mean Escape Time, Retention Trial: 6.7 ± 1.4 s
[3]; oral, 20 mg/kg, acquisition trial 1
  Mean Escape Time: 30.0 ± 0.0 s
[3]; oral, 20 mg/kg, acquisition trial 2
  Mean Escape Time: 29.2 ± 0.4 s
[3]; oral, 20 mg/kg, acquisition trial 3
  Mean Escape Time: 20.0 ± 4.3 s
[3]; oral, 20 mg/kg, acquisition trial 4
  Mean Escape Time: 7.5 ± 2.9 s
[3]; oral, 20 mg/kg, acquisition trial 5
  Mean Escape Time: 4.7 ± 0.8 s
[3]; oral, 20 mg/kg, acquisition trial 6
  Mean Escape Time: 7.2 ± 2.0 s
[3]; oral, 20 mg/kg, acquisition trial 7
  Mean Escape Time: 8.0 ± 1.6 s
[3]; oral, 20 mg/kg, acquisition trial 8
  Mean Escape Time: 10.5 ± 3.7 s
[3]; oral, 20 mg/kg, acquisition trial 9
  Mean Escape Time: 7.0 ± 1.2 s
[3]; oral, 20 mg/kg, acquisition trial 10
  Mean Escape Time: 7.5 ± 2.1 s
[1]
  LD50: ~300 mg/kg
[2]; dose 1 mg/kg
  Activity: stimulant

## CC1CCCC2(C1)OC(N)=NC2=O (stereo not drawn) [2-amino-7-methyl-1-oxa-3-aza-spiro[4,5]dec-2-en-4-one]
[1]
  LD50: ~750 mg/kg
[2]; dose 200 mg/kg
  Activity: depressant

## NC1=NC(=O)C2(CCN(Cc3ccccc3)CC2)O1 [2-amino-8-benzyl-1-oxa-3,8-diazaspiro[4,5]dec-2-en-4-one]
[1]
  LD50: > 1000 mg/kg
[2]; dose 200 mg/kg
  Activity: depressant

## CC(C)N1CCC2(CC1)OC(N)=NC2=O [2-amino-8-isopropyl-1-oxa-3,8-diazaspiro-[4,5]dec-2-en-4-one]
[1]
  LD50: 1000 mg/kg
[2]; dose 100 mg/kg
  Activity: depressant

## CC1CCC2(CC1)OC(N)=NC2=O (stereo not drawn) [2-amino-8-methyl-1-oxa-2-aza-spiro[4,5]dec-2-en-4-one]
[1]
  LD50: > 1000 mg/kg
[2]; dose 500 mg/kg
  Activity: depressant

## CN1CCC2(CC1)OC(N)=NC2=O [2-amino-8-methyl-1-oxa-3,8-diazaspiro[4,5]dec-2-en-4-one]
[3]; intraperitoneal, 10 mg/kg
  Mean Escape Time, Retention Trial: 13.8 ± 1.4 s
[3]; intraperitoneal, 10 mg/kg, acquisition trial 1
  Mean Escape Time: 29.8 ± 0.3 s
[3]; intraperitoneal, 10 mg/kg, acquisition trial 2
  Mean Escape Time: 29.5 ± 0.5 s
[3]; intraperitoneal, 10 mg/kg, acquisition trial 3
  Mean Escape Time: 13.8 ± 1.7 s
[3]; intraperitoneal, 10 mg/kg, acquisition trial 4
  Mean Escape Time: 12.0 ± 2.1 s
[3]; intraperitoneal, 10 mg/kg, acquisition trial 5
  Mean Escape Time: 7.0 ± 1.6 s
[3]; intraperitoneal, 10 mg/kg, acquisition trial 6
  Mean Escape Time: 7.8 ± 1.5 s
[3]; intraperitoneal, 10 mg/kg, acquisition trial 7
  Mean Escape Time: 6.5 ± 1.6 s
[3]; intraperitoneal, 10 mg/kg, acquisition trial 8
  Mean Escape Time: 7.0 ± 2.2 s
[3]; intraperitoneal, 10 mg/kg, acquisition trial 9
  Mean Escape Time: 10.8 ± 3.0 s
[3]; intraperitoneal, 10 mg/kg, acquisition trial 10
  Mean Escape Time: 9.0 ± 1.2 s
[1]
  LD50: > 1000 mg/kg
[2]; dose 10 mg/kg
  Activity: stimulant

## NC1=NC(=O)C2(CCN(CCc3ccccc3)CC2)O1 [2-amino-8-phenethyl-1-oxa-3,8-diazaspiro-[4,5]dec-2-en-4-one]
[1]
  LD50: > 1000 mg/kg
[2]; dose 200 mg/kg
  Activity: depressant

## NC1=NC(=O)C2(CCC2)O1 [6-amino-5-oxa-7-azaspiro[3,4]oct-6-en-8-one]
[1]
  LD50: > 500 mg/kg
[2]; dose 200 mg/kg
  Activity: depressant

From patent US3931198A, “2-Amino-5-spiro substituted oxazoline-4-one compounds” (Abbott Laboratories, priority 1973, dated 1976)
